Where “and” joins values, the source holds several entries; their conditions need not be identical. Identical values can stand only once. Inconclusive results and toxic doses are left out. Cut-off read from the data, not from the text of the source: active = T/C of 150% or more; inactive = T/C below 125%. Square brackets hold non-standard residues; d marks the D form. Peptide text beside a SMILES is read from it. * marks the point of attachment. ξ: configuration not given here. Cbz = O=C(OCc1ccccc1)*; ξT = CC(O)C(N)C(=O)O; OBn = c1ccc(CO*)cc1
Tested on: L1210 leukemia ip in BDF1 mice, survival T/C
Test: NCI In Vivo Anticancer Drug Screen. Data for tumor model L1210 Leukemia (intraperitoneal) in B6D2F1 (BDF1) mice
Settings: endpoint: mean survival time, higher = longer survival
Outline: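 Mice bearing the transplanted tumor received compound or vehicle. Survival of the treated group was divided by that of the vehicle-treated control group to give the ratio.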

[1] = dose: 100.0 mg/kg/injection, schedule: Q01DX009 (ip), vehicle: saline with Tween-80
[2] = dose: 200.0 mg/kg/injection, schedule: Q01DX009 (ip), vehicle: saline with Tween-80
[3] = dose: 100.0 mg/kg/injection, schedule: Q04DX003 (ip), vehicle: Klucel (hydroxypropylcellulose) (HPC)
[4] = dose: 200.0 mg/kg/injection, schedule: Q04DX003 (ip), vehicle: Klucel (hydroxypropylcellulose) (HPC)
[5] = dose: 100.0 mg/kg/injection, schedule: Q01DX001 (ip), vehicle: saline
[6] = dose: 200.0 mg/kg/injection, schedule: Q01DX001 (ip), vehicle: saline
[7] = dose: 400.0 mg/kg/injection, schedule: Q01DX001 (ip), vehicle: saline
[8] = dose: 100.0 mg/kg/injection, schedule: Q04DX003 (ip), vehicle: saline with Tween-80
[9] = dose: 200.0 mg/kg/injection, schedule: Q04DX003 (ip), vehicle: saline with Tween-80
[10] = dose: 400.0 mg/kg/injection, schedule: Q04DX003 (ip), vehicle: saline with Tween-80
[11] = dose: 100.0 mg/kg/injection, schedule: Q01DX001 (ip), vehicle: carboxymethylcellulose (CMC)
[12] = dose: 200.0 mg/kg/injection, schedule: Q01DX001 (ip), vehicle: carboxymethylcellulose (CMC)
[13] = dose: 12.5 mg/kg/injection, schedule: Q04DX002 (ip), vehicle: saline with Tween-80
[14] = dose: 50.0 mg/kg/injection, schedule: Q01DX009 (ip), vehicle: Klucel (hydroxypropylcellulose) (HPC)
[15] = dose: 100.0 mg/kg/injection, schedule: Q01DX009 (ip), vehicle: Klucel (hydroxypropylcellulose) (HPC)
[16] = dose: 400.0 mg/kg/injection, schedule: Q01DX001 (ip), vehicle: carboxymethylcellulose (CMC)

Measured: T/C

Cc1cc[n+]2cc3c(ccc4ccccc43)c(C)c2c1
inactive: dose: 2.0 mg/kg/injection, schedule: Q01DX015 (ip), vehicle: carboxymethylcellulose (CMC) 103 % of control | dose: 4.0 mg/kg/injection, schedule: Q01DX015 (ip), vehicle: carboxymethylcellulose (CMC) 124 % of control | dose: 8.0 mg/kg/injection, schedule: Q01DX015 (ip), vehicle: carboxymethylcellulose (CMC) 117 % of control | dose: 16.0 mg/kg/injection, schedule: Q01DX015 (ip), vehicle: carboxymethylcellulose (CMC) 98 % of control | dose: 25.0 mg/kg/injection, schedule: Q01DX001 (ip), vehicle: carboxymethylcellulose (CMC) 107 % of control

O=C(CCCl)OCC#CCOC(=O)CCCl
inactive: [1] 101 % of control | [2] 94 % of control

O=C(/C=C/c1c(Cl)cccc1Cl)c1ccc([N+](=O)[O-])cc1
inactive: [3] 103 % of control | [4] 94 % of control | dose: 400.0 mg/kg/injection, schedule: Q04DX003 (ip), vehicle: Klucel (hydroxypropylcellulose) (HPC) 94 % of control

CSc1ccnc2c1cnn2C1OC(CO)C(O)C1O (stereo not given)
inactive: dose: 50.0 mg/kg/injection, schedule: Q01DX005 (ip), vehicle: other 109 % of control | dose: 100.0 mg/kg/injection, schedule: Q01DX005 (ip), vehicle: other 102 % of control | dose: 200.0 mg/kg/injection, schedule: Q01DX005 (ip), vehicle: other 98 % of control

CC(C)C1(c2ccsc2)NC(=O)NC1=O (stereo not given)
inactive: [5] 94 % of control | [6] 100 % of control | [7] 91 % of control

CC(C)c1ccc(C(=O)CCCCl)cc1
inactive: [8] 97 % of control | [9] 102 % of control | [10] 92 % of control

c1ccc2c(c1)ccc1cc3cccc[n+]3cc12
inactive: dose: 0.31 mg/kg/injection, schedule: Q01DX009 (ip), vehicle: saline 98 % of control | dose: 0.62 mg/kg/injection, schedule: Q01DX009 (ip), vehicle: saline 98 % of control | dose: 1.25 mg/kg/injection, schedule: Q01DX009 (ip), vehicle: saline 101 % of control and 104 % of control | dose: 5.0 mg/kg/injection, schedule: Q04DX003 (ip), vehicle: saline 102 % of control | dose: 10.0 mg/kg/injection, schedule: Q04DX003 (ip), vehicle: saline 96 % of control

NC1=NCc2ccccc21
inactive: dose: 12.5 mg/kg/injection, schedule: Q04DX003 (ip), vehicle: saline 102 % of control | dose: 25.0 mg/kg/injection, schedule: Q04DX003 (ip), vehicle: saline 93 % of control | dose: 50.0 mg/kg/injection, schedule: Q04DX003 (ip), vehicle: saline 91 % of control

CN=C(NO)c1ccccc1C
inactive: [11] 100 % of control | [12] 97 % of control

CC12CCC(O)CC1CCC1C2CCC2(C)C(c3ccc(=O)oc3)C(O)C3OC132 (stereo not given)
inactive: dose: 1.87 mg/kg/injection, schedule: Q01DX009 (ip), vehicle: Klucel (hydroxypropylcellulose) (HPC) 105 % of control | dose: 3.5 mg/kg/injection, schedule: Q01DX009 (ip), vehicle: Klucel (hydroxypropylcellulose) (HPC) 96 % of control | dose: 7.0 mg/kg/injection, schedule: Q01DX009 (ip), vehicle: Klucel (hydroxypropylcellulose) (HPC) 91 % of control

C(=N\N1CCN(/N=C/c2ccc(-c3ccccc3)cc2)CC1)/c1ccc(-c2ccccc2)cc1
inactive: [5] 94 % of control | [6] 97 % of control | [7] 94 % of control

O=C(CC(=Nc1ccccc1)c1ccccc1)c1ccccc1.O=C(CC(=Nc1ccccc1)c1ccccc1)c1ccccc1.[Cu]
inactive: dose: 50.0 mg/kg/injection, schedule: Q04DX003 (ip), vehicle: saline with Tween-80 89 % of control | [8] 90 % of control

C[C@@H](c1ccccc1)[C@@H](C(=O)O)c1ccccc1
inactive: dose: 50.0 mg/kg/injection, schedule: Q01DX001 (ip), vehicle: saline 109 % of control | [5] 94 % of control | [6] 97 % of control | [7] 97 % of control

CC1=CC(=O)C=CC1(C)C(Cl)Cl (stereo not given)
inactive: [8] 107 % of control | [9] 100 % of control | [10] 97 % of control

CCCCCCc1cc2ccccc2cc1CCCC
inactive: [5] 102 % of control | [6] 100 % of control | [7] 97 % of control

C[CH2][Sn]1([CH2]C)[O]OC(c2ccccc2)[O]1 (stereo not given)
inactive: dose: 0.78 mg/kg/injection, schedule: Q01DX009 (ip), vehicle: saline with Tween-80 101 % of control and 102 % of control | dose: 1.56 mg/kg/injection, schedule: Q01DX009 (ip), vehicle: saline with Tween-80 101 % of control and 110 % of control | dose: 3.12 mg/kg/injection, schedule: Q01DX009 (ip), vehicle: saline with Tween-80 105 % of control and 122 % of control | dose: 6.25 mg/kg/injection, schedule: Q01DX009 (ip), vehicle: saline with Tween-80 100 % of control | dose: 6.25 mg/kg/injection, schedule: Q04DX002 (ip), vehicle: saline with Tween-80 94 % of control | dose: 12.5 mg/kg/injection, schedule: Q01DX009 (ip), vehicle: saline with Tween-80 114 % of control and 121 % of control | [13] 96 % of control | dose: 25.0 mg/kg/injection, schedule: Q01DX009 (ip), vehicle: saline with Tween-80 91 % of control

CCCCOC(=O)C1CCCCC1C(=O)OCCCC (stereo not given)
inactive: [14] 102 % of control | [15] 102 % of control | dose: 200.0 mg/kg/injection, schedule: Q01DX009 (ip), vehicle: Klucel (hydroxypropylcellulose) (HPC) 90 % of control

FC1(F)C=C(c2ccccc2)C1(Cl)Cl
inactive: dose: 25.0 mg/kg/injection, schedule: Q01DX009 (ip), vehicle: Klucel (hydroxypropylcellulose) (HPC) 102 % of control | [14] 100 % of control | [15] 92 % of control and 98 % of control | [3] 107 % of control | [4] 113 % of control

C=CCCCCCCCCC(=O)NCCN1CCOCC1
inactive: [8] 101 % of control

Cc1cc(N(CCCl)CCCl)ccc1N=Nc1ccccc1C(=O)O
inactive: dose: 3.1 mg/kg/injection, schedule: Q01DX Z (ip), vehicle: carboxymethylcellulose (CMC) 116 % of control | dose: 5.0 mg/kg/injection, schedule: Q01DX010 (ip), vehicle: saline 110 % of control and 111 % of control | dose: 10.0 mg/kg/injection, schedule: Q01DX010 (ip), vehicle: saline 119 % of control and 122 % of control | dose: 18.0 mg/kg/injection, schedule: Q01DX Z (ip), vehicle: carboxymethylcellulose (CMC) 122 % of control | dose: 20.0 mg/kg/injection, schedule: Q01DX010 (ip), vehicle: saline 121 % of control | dose: 25.0 mg/kg/injection, schedule: Q01DX Z (ip), vehicle: carboxymethylcellulose (CMC) 107 % of control | dose: 27.0 mg/kg/injection, schedule: Q01DX Z (ip), vehicle: carboxymethylcellulose (CMC) 114 % of control | dose: 40.0 mg/kg/injection, schedule: Q01DX010 (ip), vehicle: saline 88 % of control | dose: 40.0 mg/kg/injection, schedule: Q01DX Z (ip), vehicle: carboxymethylcellulose (CMC) 86 % of control

COc1ccc(C2C(C(=O)N3CCN(C)CC3)C2c2ccc(OC)cc2)cc1 (stereo not given)
inactive: dose: 12.5 mg/kg/injection, schedule: Q04DX002 (ip), vehicle: saline 102 % of control | dose: 25.0 mg/kg/injection, schedule: Q04DX002 (ip), vehicle: saline 102 % of control | dose: 50.0 mg/kg/injection, schedule: Q04DX002 (ip), vehicle: saline 102 % of control

COCC=C(C)C
inactive: dose: 50.0 mg/kg/injection, schedule: Q01DX009 (ip), vehicle: saline with Tween-80 106 % of control | [1] 92 % of control | [2] 95 % of control

CC(O)C(NC(=O)CNC(=O)OCc1ccccc1)C(=O)OCc1ccccc1 (stereo not drawn) (Cbz-Gly-[ξT]-OBn)
inactive: [8] 97 % of control | [9] 105 % of control | [10] 97 % of control

CCOC(=O)/C=C/Sc1ccccc1
inactive: [13] 98 % of control | dose: 25.0 mg/kg/injection, schedule: Q04DX002 (ip), vehicle: saline with Tween-80 98 % of control | dose: 50.0 mg/kg/injection, schedule: Q04DX002 (ip), vehicle: saline with Tween-80 91 % of control

CCCCCCC1(C)CCC(=O)O1 (stereo not given)
inactive: [5] 94 % of control | [6] 94 % of control | [7] 100 % of control

CCOC(=O)C1=CC2(c3ccccc3)CC1(c1ccccc1)C(c1ccccc1)=C2c1ccccc1 (stereo not given)
inactive: dose: 50.0 mg/kg/injection, schedule: Q01DX001 (ip), vehicle: carboxymethylcellulose (CMC) 97 % of control | [11] 92 % of control | [12] 94 % of control | [16] 89 % of control

O=C(CC1(c2ccccc2)C(=O)c2ccccc2C1=O)c1ccccc1
inactive: [11] 94 % of control | [12] 91 % of control | [16] 94 % of control

Source: PubChem BioAssay AID248 (DTP/NCI, 2004)
